From US20110124650A1, “STABLE CRYSTALLINE SALTS OF ANTIFOLATE COMPOUNDS” (Chelsea Therapeutics, Inc., priority 2009, published 2011)

How the values were obtained:
[1] = Polymorph stress test: water content by Karl Fisher titration after storage; format: physicochemical; conditions: for Water content (Karl Fisher): dipotassium salt
Experimental: Samples of polymorph Form Ib and polymorph Form II also were analyzed for water content using Karl Fisher titration according to method AM-1-General/water content. A columetric Karl Fisher titrator (DL39, Mettler Toledo) was used with a Stromboli drying oven (Mettler Toledo), a generator electrode, and a standard analytical balance (at least […] accuracy). Instrument conditions were set for an oven temperature of 150° C., a gas flow rate of 100.0 mL/min, and a stirrer speed of 50%. Control parameters were set for a max time of 600 s, a current of 2.0 μA, an end point of 100 mV, and a generation speed set at normal. The samples were tested on the day of synthesis (zero point) and at 1, 2, and 4 weeks storage at ambient conditions (i.e., room temperature and room humidity), at 25° C. (+/−2° C.) and 60% relative humidity (RH) (+/−5% RH), and at 40° C. (+/−2° C.) and 75% RH (+/−5% RH). Test results are provided in Table 10 (Form Ib) and Table 11 (Form II), wherein the values provided are the percent water content.

[2] = Polymorph stress test: purity by HPLC-UV after storage; format: physicochemical; conditions: for Purity by HPLC-UV, average: average over time points
Experimental: Samples of polymorph Form Ib and polymorph Form II were analyzed for purity by HPLC-UV according to method AM-5-ASP001 performed by gradient liquid chromatography with UV-detection at 237 nm. A Hypersil GOLD column from Thermo Scientific (250×4.6 mm, 5 μm) was used at a temperature of 30° C. A Dionex STH 585 column oven was used with a Dionex P580 gradient pump and a flow rate of 1.0 ml/min (gradient elution). A Dionex Degasys DG-1210 degasser and a Gynkotek Gina 50 autosampler injector were used with an injection volume of 5 μL. A Dionex PDA-100 photodiode array detector was used at a wavelength of 237 nm. Sample runtime was 46 minutes. The samples were tested on the day of synthesis (zero point) and at 1, 2, and 4 weeks storage at ambient conditions (i.e., room temperature and room humidity), at 25° C. (+/−2° C.) and 60% relative humidity (RH) (+/−5% RH), and at 40° C. (+/−2° C.) and 75 RH (+/−5% RH). Test results are provided in Table 8 (Form Ib) and Table 9 (Form II), wherein the values provided are the area %.

[3] = 25° C. (+/−2° C.) and 60% relative humidity (+/−5% RH)
[4] = 1 week storage, 25° C./60% RH, dipotassium salt
[5] = 1 week storage, 40° C./75% RH, dipotassium salt
[6] = 1 week storage, ambient conditions, dipotassium salt
[7] = 2 weeks storage, 25° C./60% RH, dipotassium salt
[8] = 2 weeks storage, 40° C./75% RH, dipotassium salt
[9] = 2 weeks storage, ambient conditions, dipotassium salt
[10] = 4 weeks storage, 25° C./60% RH, dipotassium salt
[11] = 4 weeks storage, 40° C./75% RH, dipotassium salt
[12] = 25° C./60% RH, dipotassium salt
[13] = 40° C./75% RH, dipotassium salt
[14] = ambient conditions, dipotassium salt
[15] = zero point (day of synthesis), dipotassium salt
[16] = 1 week storage, ambient conditions
[17] = 2 weeks storage, ambient conditions
[18] = 4 weeks storage, ambient conditions

## C=C(C[C@H](NC(=O)c1ccc(CCc2ccc3nc(N)nc(N)c3c2)cc1)C(=O)[O-])C(=O)[O-].[K+].[K+] [Form I, (S)-2-{4-[2-(2,4-diamino-quinazolin-6-yl)-ethyl]-benzoylamino}-4-methylene-pentanedioic acid, dipotassium salt]
[1]; [3]
  Water uptake on storage (in words): no significant water uptake

## C=C(C[C@H](NC(=O)c1ccc(CCc2ccc3nc(N)nc(N)c3c2)cc1)C(=O)[O-])C(=O)[O-].[K+].[K+] [Form II, (S)-2-{4-[2-(2,4-diamino-quinazolin-6-yl)-ethyl]-benzoylamino}-4-methylene-pentanedioic acid, dipotassium salt]
[2]; [4]
  Purity by HPLC-UV: 96.53 area %
[2]; [5]
  Purity by HPLC-UV: 96.43 area %
[2]; [6]
  Purity by HPLC-UV: 96.42 area %
[2]; [7]
  Purity by HPLC-UV: 96.24 area %
[2]; [8]
  Purity by HPLC-UV: 96.35 area %
[2]; [9]
  Purity by HPLC-UV: 96.49 area %
[2]; [10]
  Purity by HPLC-UV: 96.24 area %
[2]; [11]
  Purity by HPLC-UV: 95.52 area %
[2]; [12]
  Purity by HPLC-UV, average: 96.44 area %
[2]; [13]
  Purity by HPLC-UV, average: 96.10 area %
[2]; [14]
  Purity by HPLC-UV, average: 96.49 area %
[2]; [15]
  Purity by HPLC-UV: 96.46 area %
[1]; 1 week storage, 25° C./60% RH
  Water content (Karl Fisher): 17.0%
[1]; 1 week storage, 40° C./75% RH
  Water content (Karl Fisher): 21.2%
[1]; [16]
  Water content (Karl Fisher): 18.7%
[1]; 2 weeks storage, 25° C./60% RH
  Water content (Karl Fisher): 16.3%
[1]; 2 weeks storage, 40° C./75% RH
  Water content (Karl Fisher): 24.4%
[1]; [17]
  Water content (Karl Fisher): 21.1%
[1]; 4 weeks storage, 25° C./60% RH
  Water content (Karl Fisher): 16.5%
[1]; 4 weeks storage, 40° C./75% RH
  Water content (Karl Fisher): 26.6%
[1]; [18]
  Water content (Karl Fisher): 21.9%
[1]; [3]
  Storage stability (in words): stable
  Water uptake on storage (in words): no significant water uptake
[1]; zero point (day of synthesis)
  Water content (Karl Fisher): 15.6%

## C=C(C[C@H](NC(=O)c1ccc(CCc2ccc3nc(N)nc(N)c3c2)cc1)C(=O)[O-])C(=O)[O-].[K+].[K+] [Form Ib, (S)-2-{4-[2-(2,4-diamino-quinazolin-6-yl)-ethyl]-benzoylamino}-4-methylene-pentanedioic acid, dipotassium salt]
[2]; [4]
  Purity by HPLC-UV: 95.96 area %
[2]; [5]
  Purity by HPLC-UV: 95.87 area %
[2]; [6]
  Purity by HPLC-UV: 95.87 area %
[2]; [7]
  Purity by HPLC-UV: 95.67 area %
[2]; [8]
  Purity by HPLC-UV: 95.43 area %
[2]; [9]
  Purity by HPLC-UV: 95.78 area %
[2]; [10]
  Purity by HPLC-UV: 95.85 area %
[2]; [11]
  Purity by HPLC-UV: 95.34 area %
[2]; [18]
  Purity by HPLC-UV: 95.91 area %
[2]; [12]
  Purity by HPLC-UV, average: 95.83 area %
[2]; [13]
  Purity by HPLC-UV, average: 95.55 area %
[2]; [14]
  Purity by HPLC-UV, average: 95.88 area %
[2]; [15]
  Purity by HPLC-UV: 95.94 area %
[1]; 1 week storage, 25° C./60% RH
  Water content (Karl Fisher): 16.0%
[1]; 1 week storage, 40° C./75% RH
  Water content (Karl Fisher): 19.6%
[1]; [16]
  Water content (Karl Fisher): 16.2%
[1]; 2 weeks storage, 25° C./60% RH
  Water content (Karl Fisher): 15.5%
[1]; 2 weeks storage, 40° C./75% RH
  Water content (Karl Fisher): 22.7%
[1]; [17]
  Water content (Karl Fisher): 16.5%
[1]; 4 weeks storage, 25° C./60% RH
  Water content (Karl Fisher): 16.4%
[1]; 4 weeks storage, 40° C./75% RH
  Water content (Karl Fisher): 26.8%
[1]; [18]
  Water content (Karl Fisher): 18.4%
[1]; zero point (day of synthesis)
  Water content (Karl Fisher): 14.8%
